SMILES | melting point [°C]
CCCN(CCC)C1CCc2c(ccc3c2C(=O)C(=O)N3)C1 (stereo unspecified) | 83 to 86
COc1ccc(N2CCOCC2)c2sc(NC(=O)C[C@H]3CC[C@@H](O)CC3)nc12 | 212 to 216
CCOC(=O)c1ocnc1C | 31 to 33
CC(=N)NS(=O)(=O)C=Cc1ccc(Cl)c(Cl)c1 | 198
O=C(CCCCCNC(=O)CCCc1ccccc1)NO | 92 to 93
COc1ccc(C2Cc3[nH]c4ccccc4c3C2)cc1 (stereo unspecified) | 106 to 109
CSc1ccc(NC(=O)CN2CCN(CCSc3nc4ccccc4o3)CC2)c(C)n1 | 116 to 117
CC(C)CCn1cc(-c2cnc3c(c2)N(Cc2c(F)ccc(F)c2Cl)CCN3)cn1 | 134
CCOC(=O)C(CC(=O)c1cccc(F)c1)(NC(C)=O)C(=O)OCC | 121 to 123
CCCCCCCCCCOc1ccccc1C(=N)OCC | 93 to 96
CC(O)(CCBr)c1ccc(-c2cccc(F)c2)cc1 (stereo unspecified) | 72 to 74
C=Cc1ccccc1OC(C)C(=O)N1CCCC1 (stereo unspecified) | 85 to 86
CCc1c(NC(=O)c2cc3c(s2)CCCC3)cccc1-c1cc(N)c(=O)n(C)c1 | 210 to 211
O=C1CCc2ccc(OC/C=C/CN3CCN(c4cccc(Cl)c4Cl)CC3)cc2N1 | 151 to 152
O=C1c2c(Cl)cccc2-n2cnc(-c3cnco3)c2[C@@H]2CCCN12 | 201 to 202
CC(C)c1cc(C(C)C)c2sc3ccccc3c(=O)c2c1 | 74 to 76
CC(=O)N(C#N)C1(c2ccc(OCc3ccc4ccccc4n3)cc2)CCCCC1 | 90
CCOc1ccc(C2CCC3c4ccc(OCC)c(F)c4OC3C2)c(F)c1F (stereo unspecified) | 126
CCCCCC1=C(CCCCC)CC(CNC(=O)Nc2c(C(C)C)cccc2C(C)C)SC1 (stereo unspecified) | 65 to 67
O=C(CCC(=O)N1CCC(c2ccc(Cl)cc2)CC1)c1ccc2c(c1)CCN(Cc1ccccc1)CC2 | 133 to 134
CSC=CC(C)(C)C(=O)O | 49 to 51
O=C(N[C@H]1C[C@H](C(=O)O)Nc2cc(Cl)cc(Cl)c21)OCc1ccccc1 (relative stereo) | 169
CC1(C)Cc2c(ccc3c2C(c2cccc(-c4ccc(NC(=O)OCc5ccccc5)cc4)c2)=NCC3(C)C)O1 | 126 to 129
O=C(Cl)c1ccc(CBr)cc1 | 56 to 58
CCCc1nn(C)c2c(NCc3ccc4c(c3)OCO4)nc(-c3ccc(C(=O)O)cc3)nc12 | 114
Nc1ccc(C(=O)O)cc1NCc1ccccc1Cl | 176 to 177

SMILES | melting point [°C]
CCOC(=O)c1c(C(F)(F)F)nc(C(F)(F)F)c(C(=O)OCC)c1OC | 46.5 to 47.5
N#Cc1ccc(C(=O)NCc2nn(-c3ccccc3Cl)c(-c3ccc(Cl)cc3)c2C#N)cc1 | 118
COc1ccccc1CC(=O)N1C[C@@H]2C(=O)CCC(c3ccccc3)(c3ccccc3)[C@@H]2C1 (racemic) | 163
Cc1ccc(-c2ccc(C(=O)Nc3cc4ncc(CN5CCCC5)cc4cc3C)cc2)cc1 | 191 to 193
COC(=O)c1cnc(Cl)c(Br)c1 | 78 to 79
COC(=O)C=C(Nc1ccc2[nH]c(=O)oc2c1)C(=O)OC | 172
Cc1c(Cc2cccc(C(F)(F)F)c2F)c2ccc(Cl)c(Cl)c2n1CCCNS(C)(=O)=O | 139
CC1N=C(c2ccccc2Cl)c2cc([N+](=O)[O-])ccc2N(C)C1=O (single isomer, unassigned; (+)) | 156 to 158
COc1ccc(N=C(Cl)c2cccc([N+](=O)[O-])c2)cc1 | 108
O=C(/C=C/c1ccn(S(=O)(=O)c2ccc3ccccc3c2)c1)NO | 153
CC(CN1CC(=O)N(CN2CCOCC2)C(=O)C1)N1CC(=O)NC(=O)C1 (stereo unspecified) | 162 to 165
COc1ccc2ccc3c4cc5c(cc4nnc3c2c1)OCO5 | 259 to 261
CC(C)c1cc(Sc2cc(C(C)C)c(O)c(C(C)C)c2)cc(C(C)C)c1O | 93.5 to 94.2
CCOC(=O)c1cc(CC)sc1Nc1c(Cl)cccc1[N+](=O)[O-] | 67 to 70
O=C(NCc1ccc(F)cc1)c1ccnc(N2CCN(Cc3ccncc3)C2=O)c1 | 161 to 163
COc1ccc(-c2ccc(OC(CCC3=CCCCC3)C(=O)O)cc2)cc1 (stereo unspecified) | 152 to 154
CCCCOc1cc(C)c(N=Nc2ccccc2)c(C)c1 | 47 to 47.5
COc1nc2ccccc2cc1NC(=O)N1CCN(c2cccc(OC(C)C)c2)CC1 | 111 to 113
N#Cc1c(Cl)c(Cl)n(O)c1-c1ccc(Cl)cc1 | 156
COc1ccc2cc(-c3cc(=O)oc4cc(O)ccc34)ccc2c1 | 223 to 225
Cc1ccccc1N1CCN(Cc2n[nH]c3ccccc23)CC1 | 135 to 136
Cc1cc(C2=NOC(C)(c3cc(Cl)cc(Cl)c3)C2)ccc1C(=O)NCC(O)CO (stereo unspecified) | 98
COc1ccc2c(c1)N(C(C)=O)C1=C(S2)C(S(C)(=O)=O)=CCC1=O | 160
CC1(C)CC(O)C(C)(C)c2cc(/C=C/c3ccc(C(=O)O)cc3)c(Cn3cccn3)cc21 (stereo unspecified) | 248
CC(C)[C@H](NC(=O)CCC(=O)c1ccc(F)cc1)C(=O)O | 103 to 105
O=C(NCCNCc1cc2ccc(O)cc2o1)C12CC3CC(CC(C3)C1)C2 | 136 to 139

SMILES | melting point [°C]
O=C(O)c1cc(-n2c(-c3ccccc3)cc3c4ccccc4ccc32)ccc1O | 242
CC1(CCl)CC(SCc2c(C(F)(F)F)n[nH]c2Cl)=NO1 (stereo unspecified) | 105 to 107
COc1cc(F)c(C2CNCc3ccsc32)cc1OC (stereo unspecified) | 108 to 111
COC(=O)c1ccc(N)c(C(=O)C(=O)OC(=O)C(=O)c2cc(C(=O)OC)ccc2N)c1 | 256 to 257
N#CC(Cl)Cc1ccc(Cl)cc1C(=O)c1ccccc1Cl (stereo unspecified) | 102 to 103
COC(=O)c1cc(C(=O)c2ccc(OC)c3ccccc23)cn1C | 162
COCn1c(-c2nc3c(OC)ccc(N4CCOCC4)c3s2)nc2ccc(Cl)nc21 | 167 to 170
COC(=O)C1Oc2ccc(Cl)cc2C(Cc2ccccc2)(c2ccccc2)O1 (stereo unspecified) | 110
CSc1ccc(-n2cnc3ccc(-c4nnc(C)o4)cc32)cc1 | 202 to 204
COC(=O)CCCC(C)(C)c1ccc(O)c(C(C)=O)c1O | 94 to 97
O=C(Cc1ccc(Cl)cc1)OCCCOc1c(Cl)cc(OCC=C(Cl)Cl)cc1Cl | 62.2
CNC(=O)CCCCCCCCn1ccnc1 | 64 to 66
Nc1nc(O)cc(CCl)n1 | 195 to 197
OCc1ccc(-c2ccc(OC(F)(F)F)c(F)c2)cn1 | 51 to 53
O=c1cc(-c2nnn[nH]2)occ1-c1ccccc1 | 237 to 238
CN(C)c1ccc(NC(=O)N(Cc2ccccc2)C[C@H]2CC[C@H](CN(Cc3ccccc3)C(=O)Nc3ccc(N(C)C)cc3)CC2)cc1 | 142 to 144
CCc1nccn1-c1ccc(NC(=O)c2ccc(Cl)cc2)cc1 | 265 to 267
O=c1[nH]c2cc([N+](=O)[O-])c3c(c2[nH]c1=O)CN(S(=O)(=O)c1cccs1)CC3 | > 300
O=[N+]([O-])c1cccc(CN2CCOCC2)c1 | 48 to 50
C[Si](C)(C)C#Cc1cnn2c(C(F)(F)F)cc(-c3ccc(C(F)(F)F)cc3)nc12 | 136
Cn1c(C(F)(F)F)cc(=O)n(-c2ccc3snc(CCl)c3c2)c1=O | 201 to 203
O=C1NCCC1Cc1ccc(Cl)nc1 (stereo unspecified) | 117 to 118
COC(=O)C(=NO)c1cnsc1 | 110 to 112
COc1nc(CO)c(CO)n1C | 110 to 119
CC(=NO)C(C)(C)NCC(C)CNC(C)(C)C(Cn1ccnc1[N+](=O)[O-])=NO (stereo unspecified) | 167 to 168
CNC(=O)n1nc(Oc2ncc(C(F)(F)F)cc2Cl)c(Cl)c1C | 81 to 83

SMILES | melting point [°C]
CC(C)(C)c1cc(NC(=O)Nc2ccc(-c3c(C(N)=O)[nH]c4ccccc34)cc2)no1 | 176 to 178
CSc1ccc(-c2n[nH]c(=S)cc2-c2ccc(F)cc2)cc1 | 219
O=C(Nc1c(Cl)cccc1Cl)N(Cc1ccccc1)CC1(c2ccccc2)CCCC1 | 125 to 127
COc1cc(C)c2c(c1)C(C(=O)O)=CCC2 | 149 to 150
CC(Oc1ccc(Oc2cnc3cc(Cl)ccc3n2)cc1)C(=O)Nc1ccc(OC(F)(F)C(F)F)cc1 (stereo unspecified) | 146 to 148
CN1C(=O)c2cccnc2NS1(=O)=O | 290 to 292
N#Cc1ccc(OCc2ccsc2)cc1OC(C(=O)O)c1ccccc1Cl (racemic) | 68 to 70
COc1ccccc1-c1cccc(-n2cnc3cc(C4=NCCN4)ccc32)c1 | 221 to 224
Cn1c([N+](=O)[O-])cnc1CS(=O)c1ccccn1 (stereo unspecified) | 160
O=Cc1cc2cc3c(cc2nc1I)OCCO3 | 155 to 157
COC(=O)c1ccc(-c2nc(-c3ccc(OC(F)F)cc3)co2)cc1 | 160 to 161
Cc1c(SCCCSc2nnnn2CC(=O)O)ccnc1CSc1ccncc1 | 185 to 187
CC1(C)OC(=S)Nc2ccc(-c3cc(Br)cc(OC(F)(F)F)c3)cc21 | 192 to 193
C=C(CN(Cc1ccccc1)Cc1ccccc1)C(=O)OC(C)(C)C | 62 to 63
O=C1Nc2ccccc2OCC1(Cl)Cl | 170 to 174
O=S1(=O)c2sccc2C=C(CO)N1CCO | 81 to 83
NC(=O)N[C@@H]1CN2C(=O)N(c3cc(Cl)nc(Cl)c3)C(=O)[C@@]2(Cc2ccc(OC(F)(F)F)cc2)C1 | 142
CCCOc1ccc(CCCCCCC(=O)O)cc1 | 49 to 50
CCN1c2ncccc2C(=O)N(C)c2ccc(-c3ccn(C)c3)nc21 | 187 to 188
CC(C)(C)OC(=O)NCC(=O)Nc1cccc(I)c1 | 126 to 128
O=C(O)Cc1coc2cc(OCc3ccccc3OCc3ccc(C(F)(F)F)cc3)ccc12 | 126 to 127
COCc1cc(NC(=O)OC)no1 | 90 to 91
CCc1nc2c(cnn2CC)c(NC2CCOCC2)c1CNC(=O)c1cccc(C(=O)NCc2cc(Cl)cc(-c3cccc(CN4CCNCC4)c3)c2)c1 | 119 to 122

— a melting point compilation (Tetko et al.; mined from patent text by program, amines drawn as free bases though some values may be those of a salt)
